Laboratory results from article PMC5915836, “Chiral probes for α1-AGP reporting by species-specific induced circularly polarised luminescence” (Chemical Science, 2018).

How the values were obtained:
[1] = target: T1, bovine α1-AGP (α1-acid glycoprotein) (Bos taurus, UniProt Q3SZR3); assay: competitive displacement of [EuL^[…]], Eu emission; assay type: binding; set-up: unit not given here; details: pH 7.40, 298 K; competitive with [EuL^1]
T1 construct: gene ORM1
T1 sequence (Q3SZR3 19-202): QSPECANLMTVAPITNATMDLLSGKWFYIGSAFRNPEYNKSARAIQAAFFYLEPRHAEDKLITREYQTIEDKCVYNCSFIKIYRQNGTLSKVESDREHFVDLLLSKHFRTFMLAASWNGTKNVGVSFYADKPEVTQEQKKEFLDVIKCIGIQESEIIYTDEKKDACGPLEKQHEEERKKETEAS

[2] = target: T2, human α1-AGP (α1-acid glycoprotein); details: pH 7.40, 298 K; competitive with [EuL^1]
T2 construct: gene ORM1

**Q.** What does the source list for `CCCCN1CCCCC1C(=O)Nc1c(C)cccc1C` (centres unmarked) [bupivacaine]?
**A.** Bupivacaine [1]: 6.4; Bupivacaine [2]: 5.6
